Patent publication US12115226B2, “Linker containing arylnitro, antibody-drug conjugate containing linker and use of linker” (Academy of Military Medical Sciences, priority 2018, dated 2024)
Square brackets hold non-standard residues; d marks the D form. Peptide text beside a SMILES is read from it. * marks the point of attachment. Dolaproine = CO[C@@H]([C@@H]1CCCN1)[C@@H](C)C(=O)O; Dil = CC[C@H](C)[C@H](NC)[C@@H](CC(=O)O)OC; X1 = C[C@@H](N*)[C@@H](O)c1ccccc1; NMeV = CN[C@H](C(=O)O)C(C)C

What was measured:
[1] = tested on: NCI-N87 human gastric cancer cell xenograft; experiment: Efficacy in nude mice xenograft model of NCI-N87 human gastric cancer cell
Method: The tested drug was dissolved in physiological saline and administered via tail vein injection.
The NCI-N87 gastric adenocarcinoma cells (purchased from ATCC) were cultured with DMEM medium containing inactivated 10% fetal bovine serum, 100 U/mL penicillin, 100 μg/mL streptomycin, and 2 mM glutamine in an incubator at 37° C. and 5% CO2. The initial concentration of the cultured cell was 1×10^6 cells/ml, and the cells were divided into bottles for passage every 3 to 4 days after the cells were full. The cancer cells in the logarithmic growth phase at 5×10^6 cells/0.1 mL were inoculated under skin of right lateral thorax of BALB/c nude mice (female, 6-8 weeks old, 18-22 g, purchased from Beijing Ankai Yibo Biotechnology Co., Ltd.). When the tumor grew to a volume of 150 mm^3, the modeling was successful. Then the administration was started, 6 mice in each dose group were administered at the specified dose once a week, the administration volume was 5 mL/kg, and the administration was performed 4 times in total. The tumor volume was measured twice a week by measurement of the long and short diameters of tumor with vernier caliper. The volume calculation formula was: volume=0.5×long diameter×short diameter^2. When the tumor volume was measured, the mice were weighed at the same time. The relationship between the change of mouse body weight and the time of administration was recorded. […]

[2] = tested on: antigen HER2-positive breast cancer cell line BT-474; experiment: Hypoxia-dependent cytotoxicity of ADC-1 (different oxygen environments); conditions: for IC50: Homo sapiens
Method: The tested cell line was antigen HER2-positive breast cancer cell line BT-474. The cell culture process was as described in Example 12, in which the oxygen concentrations in the cell incubator were separately set to 0.1%, 1.0%, 5.0%, 10.0% and 20.0%.

[3] = tested on: antigen HER2-positive breast cancer cell line BT-474; experiment: In vitro cytotoxicity of ADC (CellTiter Glo), BT-474; format: cell-based, human; conditions: 0.1% O2, 168 hours, ADC DAR about 4
Method: (§1) The vial containing the target cells was gently stirred in a 37° C. water bath to be thawed.
(§2) After the content was thawed, the vial was taken out from the water bath and decontaminated by immersion or spraying with 70% ethanol.
(§3) The cells were re-suspended in the culture medium, settled and distributed into a culture flask with an area of 75 cm^2.
(§4) The resulting culture was incubated in a Galaxy® CO2 incubator (48R, #C048312044) with 5% CO2 at 37° C., and the oxygen concentration in the incubator was 0.1%.
(§5) The cells were passaged three times a week at a ratio of 1:4 in a medium containing 10% […] (heat inactivated) and 1% penicillin-streptomycin solution.
(§6) For the passaged cells, the adherent cells were firstly rinsed with trypsin/EDTA solution (3 mL), then trypsin/EDTA (3 mL, T75 flask) was added, and spun to coat the cells evenly. The resulting culture was incubated at 37° C. until the cells were detached. It was observed by microscope to verify that the cells had been detached, then an equal volume of cell culture medium was added to inactivate trypsin, the detached cells were collected, and centrifuged at 200 g for 5 minutes, and then re-suspended in a fresh culture medium. […]
(§7) The cells were harvested and counted to determine the number of cells;

[4] = tested on: antigen HER2-positive gastric cancer cell line NCI-N87; experiment: In vitro cytotoxicity of ADC (CellTiter Glo), NCI-N87; format: cell-based, human; conditions: 0.1% O2, 168 hours, ADC DAR about 4
Method: as §1, §2, §3, §4, §5, §6, §7

[5] = tested on: antigen HER2-positive ovarian cancer cell line SK-OV-3; experiment: In vitro cytotoxicity of ADC (CellTiter Glo), SK-OV-3; format: cell-based; conditions: 0.1% O2, 168 hours, ADC DAR about 4
Method: as §1, §2, §3, §4, §5, §6, §7

[6] = tested on: antigen HER2-positive breast cancer cell line HCC1954; experiment: In vitro cytotoxicity of ADC (CellTiter Glo), HCC1954; format: cell-based; conditions: 0.1% O2, 168 hours, ADC DAR about 4
Method: as §1, §2, §3, §4, §5, §6, §7

[7] = tested on: antigen HER2-weakly positive breast cancer cell line MCF-7; experiment: In vitro cytotoxicity of ADC (CellTiter Glo), MCF-7; format: cell-based; conditions: 0.1% O2, 168 hours, ADC DAR about 4
Method: as §1, §2, §3, §4, §5, §6, §7

[8] = tested on: antigen HER2-negative breast cancer cell line MDA-MB-468; experiment: In vitro cytotoxicity of ADC (CellTiter Glo), MDA-MB-468; format: cell-based; conditions: 0.1% O2, 168 hours, ADC DAR about 4
Method: as §1, §2, §3, §4, §5, §6, §7

CC(=O)O[C@@]12CO[C@@H]1C[C@H](O)[C@@]1(C)C(=O)[C@H](O)C3=C(C)[C@@H](OC(=O)[C@H](O)[C@@H](NC(=O)OC(C)(C)C)c4ccccc4)C[C@@](O)([C@@H](OC(=O)c4ccccc4)[C@H]21)C3(C)C [Doxetaxel]
P(Vehicle VS Doxetaxel), body weight [1]: 0.0422
body weight of animals in the course of administration and treatment ([1]; nude mice): significant weight loss

CC[C@H](C)[C@@H]([C@@H](CC(=O)N1CCC[C@H]1[C@H](OC)[C@@H](C)C(=O)N[C@H](C)[C@@H](O)c1ccccc1)OC)N(C)C(=O)[C@@H](NC(=O)[C@H](C(C)C)N(C)C(=O)OCc1ccc(OCc2cnc([N+](=O)[O-])n2C)c(NC(=O)CNCCCCCCN2C(=O)C=CC2=O)c1)C(C)C [L01-MMAE]
IC50 ([2]; BT-474, read-out: IC50, cytotoxicity to BT-474 cells, O2 0.1%): 3.1 nM
IC50 ([2]; BT-474, read-out: IC50, cytotoxicity to BT-474 cells, O2 1.0%): 3.11 nM
IC50 ([2]; BT-474, read-out: IC50, cytotoxicity to BT-474 cells, O2 5.0%): 4.32 nM
IC50 ([2]; BT-474, read-out: IC50, cytotoxicity to BT-474 cells, O2 10.0%): 8.94 nM
IC50 ([2]; BT-474, read-out: IC50, cytotoxicity to BT-474 cells, O2 20.0%): 5.39 nM
increase of activity under hypoxic condition compared with normoxic condition ([2]; oxygen 0.1% versus 20%, BT-474): ~2 times

CC[C@H](C)[C@@H]([C@@H](CC(=O)N1CCC[C@H]1[C@H](OC)[C@@H](C)C(=O)N[C@H](C)[C@@H](O)c1ccccc1)OC)N(C)C(=O)[C@@H](NC(=O)[C@@H](NC)C(C)C)C(C)C [MMAE, monomethyl auristatin E] (H-[NMeV]V[Dil][Dolaproine]-X1)
IC50 [3]: 0.06 nM
IC50 [4]: 0.23 nM
IC50 [5]: 0.54 nM
IC50 [6]: 0.07 nM
IC50 [7]: 3.81 nM
IC50 [8]: 0.13 nM
